Measurements: patent US11109593B2, “Isoxazolin-5-one derivative and herbicide containing same as active ingredient” (HOKKO CHEMICAL INDUSTRY CO., LTD., priority 2017, dated 2021)

Experiments:
Assay type in all cases: in vivo
Echinochloa crus-galli [1] = assay: Test Example 1: herbicidal effect test by treatment of rice paddy soil (immediately after seeding); details: 120 g/10a active ingredient, dry weight vs untreated area, 14 days after treatment
Outline: (§1)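 Values are herbicidal rates (%) derived from average plant dry weight in treated versus untreated pots 14 days after treatment, run in duplicate. Treatment was a water-diluted emulsion dropped into flooded paddy soil right after sowing, at 120 g active ingredient per 10 ares.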

Scirpus juncoides [2] = assay: as above; details: 120 g/10a active ingredient, dry weight vs untreated area, 14 days after treatment
Outline: as §1

[3] = system: broad leaf weeds (Lindernia pyxidaria and Monochoria vaginalis); assay: as above; details: 120 g/10a active ingredient, dry weight vs untreated area, 14 days after treatment
Outline: as §1

Echinochloa crus-galli [4] = assay: Test Example 2: herbicidal effect test by treatment during growing period in paddy rice cultivation (seven days after seeding); details: 120 g/10a active ingredient, assessed 14 days after treatment, dry weight vs untreated area
Outline: (§2)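 Sow 30 seeds per species (0–1 cm) into puddled, fertilized paddy soil; keep flooded ~3 cm in greenhouse. Day 7 after seeding: drop water-diluted emulsion, 120 g a.i./10 ares. Harvest 14 d post-treatment; compare dry weight with untreated pots (duplicate).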

Scirpus juncoides [5] = assay: as above; details: 120 g/10a active ingredient, assessed 14 days after treatment, dry weight vs untreated area
Outline: as §2

[6] = system: broad leaf weeds (Lindernia pyxidaria and Monochoria vaginalis); assay: as above; details: 120 g/10a active ingredient, assessed 14 days after treatment, dry weight vs untreated area
Outline: as §2

Amaranthus viridis [7] = assay: Test Example 3: herbicidal effect test by treatment of dry field farming soil (one day after seeding); details: 120 g/10a active ingredient, evaluated 14 days after treatment
Outline: (§3)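 Weeds were seeded into the upper soil layer of alluvial field soil and, one day afterwards, the soil surface was sprayed with water-diluted emulsion delivering 120 g active ingredient per 10 ares. Mean plant dry weight relative to untreated pots after 14 days gave the herbicidal rate, tested in duplicate.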

Chenopodium album [8] = assay: as above; details: 120 g/10a active ingredient, evaluated 14 days after treatment
Outline: as §3

Echinochloa crus-galli [9] = assay: as above; details: 120 g/10a active ingredient, evaluated 14 days after treatment
Outline: as §3

southern crabgrass [10] = assay: as above; details: 120 g/10a active ingredient, evaluated 14 days after treatment
Outline: as §3

Amaranthus viridis [11] = assay: Test Example 4: herbicidal effect test by treatment of leave and stem in dry field farming (seven days after seeding); details: 120 g/10a active ingredient; emulsion sprayed seven days after seeding; evaluated 14 days after treatment
Outline: (§4)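 Duplicate pots were scored 14 days post-spray by dry weight, herbicidal rate = {1 − treated/untreated average dry weight} × 100. The water-diluted emulsion, equivalent to 120 g active ingredient per 10 ares in 100 L, was applied seven days after sowing 20 seeds each into the upper 1 cm of alluvial soil.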

Chenopodium album [12] = assay: as above; details: 120 g/10a active ingredient; emulsion sprayed seven days after seeding; evaluated 14 days after treatment
Outline: as §4

Echinochloa crus-galli [13] = assay: as above; details: 120 g/10a active ingredient; emulsion sprayed seven days after seeding; evaluated 14 days after treatment
Outline: as §4

southern crabgrass [14] = assay: as above; details: 120 g/10a active ingredient; emulsion sprayed seven days after seeding; evaluated 14 days after treatment
Outline: as §4

Structure (SMILES)	Herbicidal rate (%) Echinochloa crus-galli (Echinochloa crus-galli [1])	Herbicidal rate (%) Scirpus juncoides (Scirpus juncoides [2])	Herbicidal rate (%) Lindernia pyxidaria [3]	Herbicidal rate (%) Monochoria vaginalis [3]	Herbicidal rate (%) Echinochloa crus-galli (Echinochloa crus-galli [4])	Herbicidal rate (%) Scirpus juncoides (Scirpus juncoides [5])	Herbicidal rate (%) Lindernia pyxidaria [6]	Herbicidal rate (%) Monochoria vaginalis [6]	herbicidal rate, Amaranthus viridis (Amaranthus viridis [7])	herbicidal rate, Chenopodium album (Chenopodium album [8])	herbicidal rate, Echinochloa crus-galli (Echinochloa crus-galli [9])	herbicidal rate, southern crabgrass (southern crabgrass [10])	herbicidal effect (herbicidal rate), Amaranthus viridis (Amaranthus viridis [11])	herbicidal effect (herbicidal rate), Chenopodium album (Chenopodium album [12])	herbicidal effect (herbicidal rate), Echinochloa crus-galli (Echinochloa crus-galli [13])	herbicidal effect (herbicidal rate), southern crabgrass (southern crabgrass [14])
CCCC(C)n1oc(=O)c(Cc2ccccc2NS(=O)(=O)C(F)(F)F)c1C (stereo not shown) [Compound 1-109]	100%	100%	100%	100%	90%	90%	70%	90%	60%	60%	90%	90%	70%	50%	90%	80%
COCC(C)n1oc(=O)c(Cc2ccccc2N(C(=O)C2CC2)S(=O)(=O)C(F)(F)F)c1C (stereo not shown) [Compound 1-412]	90%	90%	90%	90%	90%	90%	90%	90%	90%	90%	90%	90%	40%	40%	90%	90%
CCCC(C)n1oc(=O)c(Cc2ccccc2N(C(=O)C2CC2)S(=O)(=O)C(F)(F)F)c1C (stereo not shown) [Compound 1-408]	100%	90%	80%	80%	90%	90%	70%	60%	80%	60%	100%	100%	40%	70%	90%	90%
CCC(C)n1oc(=O)c(Cc2ccccc2N(C(=O)C2CCCO2)S(=O)(=O)C(F)(F)F)c1C (stereo not shown) [Compound 1-522]	90%	90%	90%	90%	90%	90%	90%	90%	90%	90%	90%	90%	40%	40%	90%	90%
COCCOC(=O)N(c1ccccc1Cc1c(C)n(CCSC)oc1=O)S(=O)(=O)C(F)(F)F [Compound 1-735]	90%	90%	90%	90%	90%	90%	90%	90%	90%	90%	90%	90%	40%	40%	90%	90%
Cc1c(Cc2ccccc2N(C(=O)C2CC2)S(=O)(=O)C(F)(F)F)c(=O)on1C(C)(C)C [Compound 1-403]	90%	90%	90%	90%	90%	90%	90%	90%	90%	90%	90%	90%	40%	40%	90%	90%
CCC(C)n1oc(=O)c(Cc2ccccc2N(C(=O)c2ccc(Cl)cc2)S(=O)(=O)C(F)(F)F)c1C (stereo not shown) [Compound 1-484]	90%	90%	90%	90%	90%	90%	90%	90%	90%	90%	90%	90%	40%	40%	90%	90%
COC(=O)N(c1ccccc1Cc1c(C)n(Cc2ccc(F)cc2)oc1=O)S(=O)(=O)C(F)(F)F [Compound 1-597]	90%	90%	90%	100%	90%	90%	80%	100%	0%	0%	90%	90%	40%	40%	40%	50%
Cc1c(Cc2ccccc2NS(=O)(=O)C(F)(F)F)c(=O)on1C(C)C [Compound 1-100]	90%	90%	100%	100%	90%	90%	90%	100%	100%	100%	100%	100%	30%	90%	90%	90%
CCC(C)n1oc(=O)c(Cc2ccccc2N(C(=O)Oc2ccccc2)S(=O)(=O)C(F)(F)F)c1C (stereo not shown) [Compound 1-763]	90%	90%	90%	90%	90%	90%	90%	90%	90%	90%	90%	90%	40%	40%	90%	90%
